Activity calls are given as the source filed them. The rule behind the calls is not given here.
Tested on: CCRIS mutagenicity, Ames/micronucleus/aberration tests
Assay: CCRIS mutagenicity studies
[1] = Test System: AMES SALMONELLA TYPHIMURIUM, Strain/Indicator: TA98, Metabolic Activation: NONE, Method: PREINCUBATION
[2] = Test System: AMES SALMONELLA TYPHIMURIUM, Strain/Indicator: TA100, Metabolic Activation: NONE, Method: PREINCUBATION
[3] = Test System: AMES SALMONELLA TYPHIMURIUM, Strain/Indicator: TA100, Metabolic Activation: RAT, LIVER, S-9, PHENOBARBITAL AND 5,6-BENZOFLAVONE, Method: PREINCUBATION
[4] = Test System: AMES SALMONELLA TYPHIMURIUM, Strain/Indicator: TA98, Metabolic Activation: RAT, LIVER, S-9, PCB, Method: PREINCUBATION
[5] = Test System: AMES SALMONELLA TYPHIMURIUM, Strain/Indicator: TA100, Metabolic Activation: RAT, LIVER, S-9, PCB, Method: PREINCUBATION

In the case of `CC(=O)c1cccc(N=Nc2ccc(N)c(C(C)=O)c2C)c1C`, the mutagenic call [1] is reported as “inactive; negative”, the mutagenic call (Test System: AMES SALMONELLA TYPHIMURIUM, Strain/Indicator: TA98, Metabolic Activation: RAT, LIVER, S-9, PHENOBARBITAL AND 5,6-BENZOFLAVONE, Method: PREINCUBATION) is reported as “inactive; negative” and the mutagenic call [2] is reported as “inactive; negative”. For the same molecule, the mutagenic call [3] was “inactive; negative”.

With `CC12OOC1(C)c1c(ccc3ccccc13)O2` (stereo not given) the mutagenic call [2] was “inactive; negative”.

With `Cc1ccnc2ccccc12` the mutagenic call [3] was “active; positive”, the mutagenic call (Test System: AMES SALMONELLA TYPHIMURIUM, Strain/Indicator: TA100, Metabolic Activation: RAT, LIVER, S-9, PHENOBARBITAL AND 5,6-NAPHTHOFLAVONE, Method: PREINCUBATION) was “active; positive” and the mutagenic call (Test System: AMES SALMONELLA TYPHIMURIUM, Strain/Indicator: TA100, Metabolic Activation: RAT, LIVER, S-9, Method: PREINCUBATION) was “active; positive”. The mutagenic call (Test System: UDS RODENT HEPATOCYTES, Strain/Indicator: THY INCORP (NON-S-PHASE), Metabolic Activation: NONE, Method: AUTORADIOGRAPHY) was “active; positive”.

With `Nc1nc(-c2ccc([N+](=O)[O-])cc2)nc2c1ncn2-c1ccc([N+](=O)[O-])cc1` the mutagenic call (Test System: AMES SALMONELLA TYPHIMURIUM, Strain/Indicator: TA98(1,8-DNP), Metabolic Activation: NONE, Method: PREINCUBATION) was “active; positive”, the mutagenic call (Test System: AMES SALMONELLA TYPHIMURIUM, Strain/Indicator: TA98(1,8-DNP), Metabolic Activation: RAT, LIVER, S-9, PCB, Method: PREINCUBATION) was “active; positive” and the mutagenic call (Test System: AMES SALMONELLA TYPHIMURIUM, Strain/Indicator: TA98(NR), Metabolic Activation: NONE, Method: PREINCUBATION) was “active; positive”. The mutagenic call (Test System: AMES SALMONELLA TYPHIMURIUM, Strain/Indicator: TA98(NR), Metabolic Activation: RAT, LIVER, S-9, PCB, Method: PREINCUBATION) was “active; positive”, the mutagenic call [1] was “active; positive” and the mutagenic call [4] was “active; positive”. The mutagenic call (Test System: AMES SALMONELLA TYPHIMURIUM, Strain/Indicator: TA100(1,8-DNP), Metabolic Activation: NONE, Method: PREINCUBATION) was “active; positive”, the mutagenic call (Test System: AMES SALMONELLA TYPHIMURIUM, Strain/Indicator: TA100(1,8-DNP), Metabolic Activation: RAT, LIVER, S-9, PCB, Method: PREINCUBATION) was “inactive; negative” and the mutagenic call (Test System: AMES SALMONELLA TYPHIMURIUM, Strain/Indicator: TA100(NR), Metabolic Activation: NONE, Method: PREINCUBATION) was “active; positive”. For the same molecule, the mutagenic call (Test System: AMES SALMONELLA TYPHIMURIUM, Strain/Indicator: TA100(NR), Metabolic Activation: RAT, LIVER, S-9, PCB, Method: PREINCUBATION) was “inactive; negative”, the mutagenic call [2] was “active; positive” and the mutagenic call [5] was “active; positive”. For the same molecule, the mutagenic call (Test System: AMES SALMONELLA TYPHIMURIUM, Strain/Indicator: YG1020, Metabolic Activation: NONE, Method: PREINCUBATION) was “active; positive”, the mutagenic call (Test System: AMES SALMONELLA TYPHIMURIUM, Strain/Indicator: YG1020, Metabolic Activation: RAT, LIVER, S-9, PCB, Method: PREINCUBATION) was “active; positive” and the mutagenic call (Test System: AMES SALMONELLA TYPHIMURIUM, Strain/Indicator: YG1021, Metabolic Activation: NONE, Method: PREINCUBATION) was “active; positive”. The mutagenic call (Test System: AMES SALMONELLA TYPHIMURIUM, Strain/Indicator: YG1021, Metabolic Activation: RAT, LIVER, S-9, PCB, Method: PREINCUBATION) was “active; positive”, the mutagenic call (Test System: AMES SALMONELLA TYPHIMURIUM, Strain/Indicator: YG1024, Metabolic Activation: NONE, Method: PREINCUBATION) was “active; positive” and the mutagenic call (Test System: AMES SALMONELLA TYPHIMURIUM, Strain/Indicator: YG1024, Metabolic Activation: RAT, LIVER, S-9, PCB, Method: PREINCUBATION) was “active; positive”. The mutagenic call (Test System: AMES SALMONELLA TYPHIMURIUM, Strain/Indicator: YG1025, Metabolic Activation: NONE, Method: PREINCUBATION) was “active; positive”, the mutagenic call (Test System: AMES SALMONELLA TYPHIMURIUM, Strain/Indicator: YG1025, Metabolic Activation: RAT, LIVER, S-9, PCB, Method: PREINCUBATION) was “active; positive” and the mutagenic call (Test System: AMES SALMONELLA TYPHIMURIUM, Strain/Indicator: YG1026, Metabolic Activation: NONE, Method: PREINCUBATION) was “active; positive”. The mutagenic call (Test System: AMES SALMONELLA TYPHIMURIUM, Strain/Indicator: YG1026, Metabolic Activation: RAT, LIVER, S-9, PCB, Method: PREINCUBATION) was “active; positive”, the mutagenic call (Test System: AMES SALMONELLA TYPHIMURIUM, Strain/Indicator: YG1029, Metabolic Activation: NONE, Method: PREINCUBATION) was “active; positive” and the mutagenic call (Test System: AMES SALMONELLA TYPHIMURIUM, Strain/Indicator: YG1029, Metabolic Activation: RAT, LIVER, S-9, PCB, Method: PREINCUBATION) was “active; positive”.

In the case of `Cc1c2c3ccccc3nc-2n(C)c2c(C)cccc12`, the mutagenic call (Test System: AMES SALMONELLA TYPHIMURIUM, Strain/Indicator: TA97, Metabolic Activation: RAT, LIVER, S-9, AROCLOR 1254, Method: STANDARD PLATE) is reported as “active; positive”.

With `Nc1ccc(Oc2ccc(N)c(Cl)c2)cc1Cl` the mutagenic call [1] was “inactive; negative”, the mutagenic call [4] was “active; positive” and the mutagenic call [2] was “inactive; negative”. The mutagenic call [5] was “active; positive”.

With `O=C1NC(=O)C2CC=CCC12` (stereo not given) the mutagenic call (Test System: AMES SALMONELLA TYPHIMURIUM, Strain/Indicator: TA102, Metabolic Activation: NONE, Method: STANDARD PLATE) was “inactive; negative”, the mutagenic call (Test System: AMES SALMONELLA TYPHIMURIUM, Strain/Indicator: TA102, Metabolic Activation: RAT, LIVER, S-9, PHENOBARBITAL, Method: STANDARD PLATE) was “inactive; negative” and the mutagenic call (Test System: AMES SALMONELLA TYPHIMURIUM, Strain/Indicator: TA104, Metabolic Activation: NONE, Method: STANDARD PLATE) was “inactive; negative”. For the same molecule, the mutagenic call (Test System: AMES SALMONELLA TYPHIMURIUM, Strain/Indicator: TA104, Metabolic Activation: RAT, LIVER, S-9, PHENOBARBITAL, Method: STANDARD PLATE) was “inactive; negative”.

With `[O]=[W](=[O])([OH])[OH]` the mutagenic call [1] was “inactive; negative”, the mutagenic call (Test System: AMES SALMONELLA TYPHIMURIUM, Strain/Indicator: TA98, Metabolic Activation: RAT LIVER S-9, PHENOBARBITAL AND BETA-NAPHTHOFLAVONE, Method: PREINCUBATION) was “inactive; negative” and the mutagenic call [2] was “inactive; negative”. For the same molecule, the mutagenic call (Test System: AMES SALMONELLA TYPHIMURIUM, Strain/Indicator: TA100, Metabolic Activation: RAT LIVER S-9, PHENOBARBITAL AND BETA-NAPHTHOFLAVONE, Method: PREINCUBATION) was “inactive; negative”, the mutagenic call (Test System: AMES SALMONELLA TYPHIMURIUM, Strain/Indicator: TA1535, Metabolic Activation: NONE, Method: PREINCUBATION) was “inactive; negative” and the mutagenic call (Test System: AMES SALMONELLA TYPHIMURIUM, Strain/Indicator: TA1535, Metabolic Activation: RAT LIVER S-9, PHENOBARBITAL AND BETA-NAPHTHOFLAVONE, Method: PREINCUBATION) was “inactive; negative”. The mutagenic call (Test System: AMES SALMONELLA TYPHIMURIUM, Strain/Indicator: TA1537, Metabolic Activation: NONE, Method: PREINCUBATION) was “inactive; negative”, the mutagenic call (Test System: AMES SALMONELLA TYPHIMURIUM, Strain/Indicator: TA1537, Metabolic Activation: RAT LIVER S-9, PHENOBARBITAL AND BETA-NAPHTHOFLAVONE, Method: PREINCUBATION) was “inactive; negative” and the mutagenic call (Test System: AMES SALMONELLA TYPHIMURIUM, Strain/Indicator: TA1538, Metabolic Activation: NONE, Method: PREINCUBATION) was “inactive; negative”. For the same molecule, the mutagenic call (Test System: AMES SALMONELLA TYPHIMURIUM, Strain/Indicator: TA1538, Metabolic Activation: RAT LIVER S-9, PHENOBARBITAL AND BETA-NAPHTHOFLAVONE, Method: PREINCUBATION) was “inactive; negative”, the mutagenic call (Test System: E.COLI, Strain/Indicator: WP2UVRA, Metabolic Activation: NONE, Method: PREINCUBATION) was “inactive; negative” and the mutagenic call (Test System: E.COLI, Strain/Indicator: WP2UVRA, Metabolic Activation: RAT LIVER S-9, PHENOBARBITAL AND BETA-NAPHTHOFLAVONE, Method: PREINCUBATION) was “inactive; negative”.

`O[C@@H]1C=Cc2c(ccc3cc4ccccc4cc23)[C@H]1O` was tested, and the mutagenic call (Test System: CHINESE HAMSTER V-79, Strain/Indicator: V-79/OUABAIN, Metabolic Activation: CELL-MEDIATED, Method: STANDARD PLATE) was “active; positive”.

Source: PubChem BioAssay AID1259407 (Chemical Carcinogenesis Research Information System (CCRIS), 2018)
